In the assay the test system is CD2F1 mice, L1210 leukemia ip, survival T/C. In words: NCI In Vivo Anticancer Drug Screen. Data for tumor model L1210 Leukemia (intraperitoneal) in CD2F1 (CDF1) mice. Particulars: higher = longer survival. The essentials: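 Implant tumor; dose compound or vehicle; measure endpoint in both groups; report treated divided by control.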
The mark [1] stands for this setting: endpoint: mean survival time, dose: 100.0 mg/kg/injection, schedule: Q01DX009 (ip), vehicle: saline with Tween-80.
Setting [2] is: endpoint: mean survival time, dose: 100.0 mg/kg/injection, schedule: Q04DX003 (ip), vehicle: saline with Tween-80.
The mark [3] stands for this setting: endpoint: mean survival time, dose: 200.0 mg/kg/injection, schedule: Q01DX009 (ip), vehicle: saline with Tween-80.
Setting [4] is: endpoint: mean survival time, dose: 200.0 mg/kg/injection, schedule: Q04DX003 (ip), vehicle: saline with Tween-80.
Where [5] appears, read: endpoint: mean survival time, dose: 400.0 mg/kg/injection, schedule: Q04DX003 (ip), vehicle: saline with Tween-80.
Where [6] appears, read: endpoint: mean survival time, dose: 25.0 mg/kg/injection, schedule: Q01DX009 (ip), vehicle: saline with Tween-80.
Setting [7] is: endpoint: mean survival time, dose: 100.0 mg/kg/injection, schedule: Q04DX002 (ip), vehicle: saline with Tween-80.

Values joined by “and” are separate entries in the source; they are usually repeats but may differ in a detail not shown here. Equal values may be shown once. Inconclusive results and toxic doses are left out.

For `CCc1ccccc1OS(=O)(=O)c1cccc([N+](=O)[O-])c1`, the T/C is, setting by setting: under setting [1], 96 % of control; under setting [2], 99 % of control; under setting [3], 98 % of control; under setting [4], 100 % of control; (endpoint: mean survival time, dose: 400.0 mg/kg/injection, schedule: Q01DX009 (ip), vehicle: saline with Tween-80) 98 % of control; under setting [5], 99 % of control.

`COC1CCC2=C(C1)C(=O)CC1c3ccccc3CCN21` (centres undefined) (tested in a mixture with another compound): the T/C is, setting by setting: (endpoint: mean survival time, dose: 6.25 mg/kg/injection, schedule: Q01DX009 (ip), vehicle: saline with Tween-80) 96 % of control; (endpoint: mean survival time, dose: 12.5 mg/kg/injection, schedule: Q01DX009 (ip), vehicle: saline with Tween-80) 98 % of control; under setting [6], 96 % of control.

Regarding `C/C(=N/O)c1cccc([N+](=O)[O-])c1`, the T/C is 95 % of control under setting [1]; 104 % of control under setting [2]; 98 % of control under setting [3]; 95 % of control under setting [4]; 103 % of control under setting [5].

As to `O=NN(CCCl)C(=O)NCCO`, the T/C (endpoint: mean survival time, dose: 2.5 mg/kg/injection, schedule: Q01DX001 (ip), vehicle: water) was 120 % of control; the T/C (endpoint: mean survival time, dose: 3.13 mg/kg/injection, schedule: Q01DX009 (ip), vehicle: water) was 355 % of control; the T/C (endpoint: mean survival time, dose: 5.0 mg/kg/injection, schedule: Q01DX001 (ip), vehicle: water) was 158 % of control; the T/C (endpoint: mean survival time, dose: 6.25 mg/kg/injection, schedule: Q01DX009 (ip), vehicle: water) is 242 % of control; the T/C (endpoint: mean survival time, dose: 10.0 mg/kg/injection, schedule: Q01DX001 (ip), vehicle: water) was 166 % of control and 411 % of control; the T/C (endpoint: mean survival time, dose: 12.5 mg/kg/injection, schedule: Q01DX009 (ip), vehicle: water) is 187 % of control. For the same compound, the T/C (endpoint: mean survival time, dose: 20.0 mg/kg/injection, schedule: Q01DX001 (ip), vehicle: water) was 333 % of control and 491 % of control; the T/C (endpoint: mean survival time, dose: 25.0 mg/kg/injection, schedule: Q01DX009 (ip), vehicle: water) was 101 % of control; the T/C (endpoint: median survival time, dose: 0.75 mg/kg/injection, schedule: Q01DX009 (ip), vehicle: water) was 164 % of control; the T/C (endpoint: median survival time, dose: 0.78 mg/kg/injection, schedule: Q01DX009 (ip), vehicle: water) is 241 % of control; the T/C (endpoint: median survival time, dose: 1.5 mg/kg/injection, schedule: Q01DX009 (ip), vehicle: water) is 223 % of control; the T/C (endpoint: median survival time, dose: 1.56 mg/kg/injection, schedule: Q01DX009 (ip), vehicle: water) is 198 % of control. The T/C is 275 % of control (endpoint: median survival time, dose: 1.57 mg/kg/injection, schedule: Q01DX009 (ip), vehicle: water); 352 % of control (endpoint: median survival time, dose: 3.0 mg/kg/injection, schedule: Q01DX009 (ip), vehicle: water); 308 % of control (endpoint: median survival time, dose: 3.12 mg/kg/injection, schedule: Q01DX009 (ip), vehicle: water); 375 % of control (endpoint: median survival time, dose: 3.13 mg/kg/injection, schedule: Q01DX009 (ip), vehicle: water); 268 % of control (endpoint: median survival time, dose: 6.0 mg/kg/injection, schedule: Q01DX009 (ip), vehicle: water); 212 % of control and 262 % of control (endpoint: median survival time, dose: 6.25 mg/kg/injection, schedule: Q01DX009 (ip), vehicle: water). Further, the T/C (endpoint: median survival time, dose: 12.0 mg/kg/injection, schedule: Q01DX009 (ip), vehicle: water) is 103 % of control; the T/C (endpoint: median survival time, dose: 12.5 mg/kg/injection, schedule: Q01DX009 (ip), vehicle: water) is 114 % of control and 103 % of control; the T/C (endpoint: median survival time, dose: 25.0 mg/kg/injection, schedule: Q01DX009 (ip), vehicle: water) is 97 % of control.

Take `CC1=C/C(O)CC(=O)Cc2nc(co2)C(=O)N2CCC=C2C(=O)OC(C(C)C)C(C)/C=C\C(=O)NC/C=C\1` (centres undefined): the T/C was 98 % of control (endpoint: mean survival time, dose: 1.0 micrograms/kg/injection, schedule: Q01DX009 (ip), vehicle: Klucel (hydroxypropylcellulose) (HPC)); 101 % of control (endpoint: mean survival time, dose: 2.0 micrograms/kg/injection, schedule: Q01DX009 (ip), vehicle: Klucel (hydroxypropylcellulose) (HPC)); 97 % of control (endpoint: mean survival time, dose: 4.0 micrograms/kg/injection, schedule: Q01DX009 (ip), vehicle: Klucel (hydroxypropylcellulose) (HPC)); 92 % of control (endpoint: mean survival time, dose: 8.0 micrograms/kg/injection, schedule: Q01DX009 (ip), vehicle: Klucel (hydroxypropylcellulose) (HPC)); 98 % of control (endpoint: median survival time, dose: 25.0 mg/kg/injection, schedule: Q01DX009 (ip), vehicle: Klucel (hydroxypropylcellulose) (HPC)); 106 % of control (endpoint: median survival time, dose: 50.0 mg/kg/injection, schedule: Q01DX009 (ip), vehicle: Klucel (hydroxypropylcellulose) (HPC)). The T/C is, setting by setting: (endpoint: median survival time, dose: 100.0 mg/kg/injection, schedule: Q01DX009 (ip), vehicle: Klucel (hydroxypropylcellulose) (HPC)) 105 % of control; (endpoint: median survival time, dose: 200.0 mg/kg/injection, schedule: Q01DX009 (ip), vehicle: Klucel (hydroxypropylcellulose) (HPC)) 104 % of control.

As to `[CH3][Sn]([CH3])([Br])[CH2]CCCBr`, the T/C runs as follows: (endpoint: mean survival time, dose: 0.39 mg/kg/injection, schedule: Q01DX009 (ip), vehicle: saline) 90 % of control; (endpoint: mean survival time, dose: 0.78 mg/kg/injection, schedule: Q01DX009 (ip), vehicle: saline) 94 % of control; (endpoint: mean survival time, dose: 1.56 mg/kg/injection, schedule: Q01DX009 (ip), vehicle: saline) 92 % of control; (endpoint: mean survival time, dose: 6.25 mg/kg/injection, schedule: Q01DX009 (ip), vehicle: saline) 98 % of control; (endpoint: mean survival time, dose: 12.5 mg/kg/injection, schedule: Q01DX009 (ip), vehicle: saline) 91 % of control.

On to `O=C(O)c1ccccc1/C=C/c1ccc([N+](=O)[O-])cc1`, for which the T/C was 98 % of control under setting [6]; 95 % of control (endpoint: mean survival time, dose: 50.0 mg/kg/injection, schedule: Q01DX009 (ip), vehicle: saline with Tween-80); 104 % of control under setting [1].

On to `CCOC(=O)c1ccc2c(c1)Cc1cc([N+](=O)[O-])ccc1-2`, for which the T/C was 98 % of control (endpoint: mean survival time, dose: 100.0 mg/kg/injection, schedule: Q01DX001 (ip), vehicle: carboxymethylcellulose (CMC)); 95 % of control (endpoint: mean survival time, dose: 200.0 mg/kg/injection, schedule: Q01DX001 (ip), vehicle: carboxymethylcellulose (CMC)); 95 % of control (endpoint: mean survival time, dose: 400.0 mg/kg/injection, schedule: Q01DX001 (ip), vehicle: carboxymethylcellulose (CMC)).

For the compound `CCCCCCCCCCCC[n+]1ccc(C#N)cc1`, the T/C (endpoint: mean survival time, dose: 9.38 mg/kg/injection, schedule: Q01DX001 (ip), vehicle: saline) was 103 % of control and the T/C (endpoint: mean survival time, dose: 18.75 mg/kg/injection, schedule: Q01DX001 (ip), vehicle: saline) was 94 % of control.

On to `O=c1[nH]cc(S)c(=O)[nH]1`, for which the T/C is 106 % of control under setting [7]; 97 % of control (endpoint: mean survival time, dose: 200.0 mg/kg/injection, schedule: Q04DX002 (ip), vehicle: saline with Tween-80); 106 % of control (endpoint: mean survival time, dose: 400.0 mg/kg/injection, schedule: Q04DX002 (ip), vehicle: saline with Tween-80).

For the compound `C=CCOCC(O)CNCC(O)COCC=C` (centres undefined), under setting [2], the T/C is 100 % of control.

Turning to `Clc1ccc2c(NCc3ccncc3)ccnc2c1`, the T/C runs as follows: under setting [2], 96 % of control; under setting [4], 95 % of control; under setting [5], 96 % of control.

Regarding `CC(C)c1oc(=O)cc2c1C(O)C1OC(=O)C3(C)C(O)C4OC4C2(C)C13` (centres undefined) (tested in a mixture with another compound), under setting [7], the T/C was 105 % of control.

For the compound `Cc1cccc(N(C)C(=S)Oc2ccc3ccccc3c2)c1`, the T/C by setting is: (endpoint: mean survival time, dose: 50.0 mg/kg/injection, schedule: Q01DX009 (ip), vehicle: Klucel (hydroxypropylcellulose) (HPC)) 112 % of control; (endpoint: mean survival time, dose: 100.0 mg/kg/injection, schedule: Q01DX009 (ip), vehicle: Klucel (hydroxypropylcellulose) (HPC)) 89 % of control; (endpoint: mean survival time, dose: 200.0 mg/kg/injection, schedule: Q01DX009 (ip), vehicle: Klucel (hydroxypropylcellulose) (HPC)) 89 % of control.

With `CCn1c(=S)[nH]c(=O)c2n[nH]nc21`, the T/C was 100 % of control (endpoint: mean survival time, dose: 100.0 mg/kg/injection, schedule: Q01DX009 (ip), vehicle: acetone) and 94 % of control (endpoint: mean survival time, dose: 200.0 mg/kg/injection, schedule: Q01DX009 (ip), vehicle: acetone).

For the origin of these results see PubChem BioAssay AID256 (DTP/NCI, 2004).
